In ChEMBL document CHEMBL3885881, “DrugMatrix”:

Species: Rattus norvegicus
Assay: DrugMatrix - Regimen: Daily Repeat
Format: toxicity, organism-based, Sprague-Dawley
Design: regimen Daily Repeat, gender Male, age 6-8 weeks
Settings: in vivo, po, route oral GAVAGE, […]; for ABSOLUTE BASOPHIL / ABSOLUTE EOSINOPHIL / ABSOLUTE LYMPHOCYTE / ABSOLUTE MONOCYTE / ABSOLUTE SEGMENTED NEUTROPHIL / BASOPHIL / EOSINOPHIL / ERYTHROCYTE COUNT / HEMATOCRIT / HEMOGLOBIN / LEUKOCYTE COUNT / LYMPHOCYTE / MEAN CORPUSCULAR HEMOGLOBIN / MEAN CORPUSCULAR HEMOGLOBIN CONCENTRATION / MEAN CORPUSCULAR VOLUME / MONOCYTE / NEUTROPHIL / NUCLEATED RED BLOOD CELLS / PLATELET COUNT: tissue Blood; for ALANINE AMINOTRANSFERASE / ALBUMIN / ALKALINE PHOSPHATASE / ASPARTATE AMINOTRANSFERASE / BLOOD UREA NITROGEN / CARBON DIOXIDE / CHLORIDE / CHOLESTEROL / CREATINE PHOSPHOKINASE / CREATININE / GLUCOSE / LACTATE DEHYDROGENASE / LIPASE / PHOSPHORUS / POTASSIUM / SODIUM / TOTAL BILIRUBIN / TOTAL PROTEIN / URIC ACID: tissue Plasma
[1] = 0 mg/kg, 72 h, dose level Control, time 3 day
[2] = 0 mg/kg, 120 h, dose level Control, time 5 day
[3] = 100 mg/kg, 72 h, dose level M1, time 3 day

## CC(C)(c1ccc(O)cc1)c1ccc(O)cc1 [BISPHENOL A]
[1]
  ABSOLUTE BASOPHIL: 0 CELLS/uL
  ABSOLUTE EOSINOPHIL: 33 CELLS/uL
  ABSOLUTE LYMPHOCYTE: 9048.5 CELLS/uL
  ABSOLUTE MONOCYTE: 80.17 CELLS/uL
  ABSOLUTE SEGMENTED NEUTROPHIL: 1521.67 CELLS/uL
  BASOPHIL: 0%
  EOSINOPHIL: 0.17%
  ERYTHROCYTE COUNT: 5.46 x10E6/uL
  HEMATOCRIT: 32.87%
  HEMOGLOBIN: 12.95 G/DL
  LEUKOCYTE COUNT: 10.68 x10E3/uL
  LYMPHOCYTE: 86.67%
  MEAN CORPUSCULAR HEMOGLOBIN: 23.72 pg
  MEAN CORPUSCULAR HEMOGLOBIN CONCENTRATION: 39.4 G/DL
  MEAN CORPUSCULAR VOLUME: 60.18 fL
  MONOCYTE: 0.83%
  NEUTROPHIL: 12.33%
  NUCLEATED RED BLOOD CELLS: 0 /100WBC
  PLATELET COUNT: 1211.33 x10E3/uL
  ALANINE AMINOTRANSFERASE: 76.67 u/L
  ALBUMIN: 3.93 G/DL
  ALKALINE PHOSPHATASE: 317.17 u/L
  ASPARTATE AMINOTRANSFERASE: 81.17 u/L
  BLOOD UREA NITROGEN: 12.33 mg/dL
  CARBON DIOXIDE: 31.17 mmol/L
  CHLORIDE: 98.33 MEQ/L
  CHOLESTEROL: 67.17 mg/dL
  CREATINE PHOSPHOKINASE: 312.33 u/L
  CREATININE: 0.19 mg/dL
  GLUCOSE: 165.5 mg/dL
  LACTATE DEHYDROGENASE: 94.5 u/L
  LIPASE: 9.83 u/L
  PHOSPHORUS: 10.1 mg/dL
  POTASSIUM: 5.16 MEQ/L
  SODIUM: 143.02 MEQ/L
  TOTAL BILIRUBIN: 0.2 mg/dL
  TOTAL PROTEIN: 5.88 G/DL
  URIC ACID: 0.68 mg/dL
[2]
  ABSOLUTE BASOPHIL: 0 CELLS/uL
  ABSOLUTE EOSINOPHIL: 14.67 CELLS/uL
  ABSOLUTE LYMPHOCYTE: 9629.83 CELLS/uL
  ABSOLUTE MONOCYTE: 72.5 CELLS/uL
  ABSOLUTE SEGMENTED NEUTROPHIL: 1049.67 CELLS/uL
  BASOPHIL: 0%
  EOSINOPHIL: 0.17%
  ERYTHROCYTE COUNT: 5.36 x10E6/uL
  HEMATOCRIT: 33.82%
  HEMOGLOBIN: 13.48 G/DL
  LEUKOCYTE COUNT: 10.77 x10E3/uL
  LYMPHOCYTE: 90.17%
  MEAN CORPUSCULAR HEMOGLOBIN: 25.28 pg
  MEAN CORPUSCULAR HEMOGLOBIN CONCENTRATION: 39.92 G/DL
  MEAN CORPUSCULAR VOLUME: 63.3 fL
  MONOCYTE: 0.67%
  NEUTROPHIL: 9%
  NUCLEATED RED BLOOD CELLS: 0.17 /100WBC
  PLATELET COUNT: 1275.33 x10E3/uL
  ALANINE AMINOTRANSFERASE: 93.67 u/L
  ALBUMIN: 4.17 G/DL
  ALKALINE PHOSPHATASE: 402.5 u/L
  ASPARTATE AMINOTRANSFERASE: 122.83 u/L
  BLOOD UREA NITROGEN: 14.75 mg/dL
  CARBON DIOXIDE: 26.4 mmol/L
  CHLORIDE: 98.5 MEQ/L
  CHOLESTEROL: 57.5 mg/dL
  CREATINE PHOSPHOKINASE: 305.17 u/L
  CREATININE: 0.21 mg/dL
  GLUCOSE: 142 mg/dL
  LACTATE DEHYDROGENASE: 83.5 u/L
  LIPASE: 85.83 u/L
  PHOSPHORUS: 8.18 mg/dL
  POTASSIUM: 5.46 MEQ/L
  SODIUM: 144 MEQ/L
  TOTAL BILIRUBIN: 0.25 mg/dL
  TOTAL PROTEIN: 5.63 G/DL
  URIC ACID: 0.8 mg/dL
[3]
  ABSOLUTE BASOPHIL: 0 CELLS/uL
  ABSOLUTE EOSINOPHIL: 35.67 CELLS/uL
  ABSOLUTE LYMPHOCYTE: 8627 CELLS/uL
  ABSOLUTE MONOCYTE: 90.33 CELLS/uL
  ABSOLUTE SEGMENTED NEUTROPHIL: 547 CELLS/uL
  BASOPHIL: 0%
  EOSINOPHIL: 0.33%
  ERYTHROCYTE COUNT: 5.35 x10E6/uL
  HEMATOCRIT: 33.47%
  HEMOGLOBIN: 13.5 G/DL
  LEUKOCYTE COUNT: 9.3 x10E3/uL
  LYMPHOCYTE: 92.67%
  MEAN CORPUSCULAR HEMOGLOBIN: 25.27 pg
  MEAN CORPUSCULAR HEMOGLOBIN CONCENTRATION: 40.33 G/DL
  MEAN CORPUSCULAR VOLUME: 62.63 fL
  MONOCYTE: 1%
  NEUTROPHIL: 6%
  NUCLEATED RED BLOOD CELLS: 0 /100WBC
  PLATELET COUNT: 906.33 x10E3/uL
  ALANINE AMINOTRANSFERASE: 76.33 u/L
  ALBUMIN: 4 G/DL
  ALKALINE PHOSPHATASE: 385 u/L
  ASPARTATE AMINOTRANSFERASE: 87 u/L
  BLOOD UREA NITROGEN: 12 mg/dL
  CARBON DIOXIDE: 31.67 mmol/L
  CHLORIDE: 98 MEQ/L
  CHOLESTEROL: 61 mg/dL
  CREATINE PHOSPHOKINASE: 318 u/L
  CREATININE: 0.17 mg/dL
  GLUCOSE: 154 mg/dL
  LACTATE DEHYDROGENASE: 114.33 u/L
  LIPASE: 9.67 u/L
  PHOSPHORUS: 10.63 mg/dL
  POTASSIUM: 5.46 MEQ/L
  SODIUM: 142.7 MEQ/L
  TOTAL BILIRUBIN: 0.17 mg/dL
  TOTAL PROTEIN: 5.73 G/DL
  URIC ACID: 0.77 mg/dL
